We go through 15 molecules from paper PMC4071583, “Potent Cytotoxic Peptides from the Australian Marine Sponge Pipestela candelabra” (Marine Drugs, 2014).

Data set [1] relates to human xenograft cancer models. The arrangement: method as in PMID 19825803. To be noted: many human xenograft cancer models; cited from earlier work. A general note: Xenograft models place foreign cells or tissue in a host animal.
The test system of a further data set is advanced solid tumors. The arrangement: method as in PMID 19096380. The conditions noted are these: cited from earlier work.
The subject of data set [2] is Human prostate adenocarcinoma cells (PC3). The experiment in a line: Cytotoxicity assay (Alamar blue), human prostate cancer cells PC3. The conditions noted are these: for IC50: Homo sapiens, read-out: IC50 PC3. The class given is cell-based. The procedure: (§1) Human prostate adenocarcinoma cells (PC3) and human neonatal foreskin fibroblast (noncancer cells, NFF) were grown in media RPMI-1640 (Life Technologies, Grand Island, NY, USA) supplemented with 10% foetal bovine serum (FBS). Cells were grown under 5% CO2 in a humidified environment at 37°C. Fifty microlitres of media containing 500 cells were added to a 384 well microtitre plate (Perkin Elmer, Waltham, MA, USA, part number: 6007660) containing 0.2 μL of a compound. Final compound concentration range tested was 10 μM to 1 pM (final DMSO concentration of 0.4%). Each concentration in media was tested in triplicate and in two independent experiments. Cells and compounds were then incubated in 72 h at 37 °C, 5% CO2 and 80% humidity. Cell proliferation was measured with the addition of 10 μL of a 60% Alamar blue (Invitrogen, Carlsbad, CA, USA) solution in media to each well of the microtitre plate to give a final concentration of 10% Alamar blue. The plates were incubated at 37 °C, 5% CO2 and 80% humidity within 24 h. The fluorescence of each well was read at excitation 535 nm and emission 590 nm on the Perkin Elmer EnVision Multilabel Reader 2104. Eight-point concentration response curves were then analysed using non-linear regression and IC50 values determined by using GraphPad Prism 5 (GraphPad Software Inc., La Jolla, CA, USA). Paclitaxel and doxorubicin were used during each screening as positive control compounds.
(In general: Resazurin is reduced to fluorescent resorufin, in cell work by metabolically active cells.)

Data set [3] concerns human neonatal foreskin fibroblast (noncancer cells, NFF). In words: Cytotoxicity assay (Alamar blue), human neonatal foreskin fibroblast non-cancer cells NFF. Format: cell-based. The conditions noted are these: for IC50: read-out: IC50 NFF. The procedure: as §1
Data set [4] is described as follows: Auto-oxidation on storage, LC/MS analysis. Format: physicochemical. To be noted: dried compound stored at room temperature for a few months. From the text:
We noticed that the dried milnamides A (5) and E (1) changed from white powders to yellow powders when the compounds were stored at room temperature for a few months. […] As in the previous study, we are unable to determine if milnamides A (5) and E (1) are naturally occurring or produced by auto-oxidation.

Details of data set [5]: method as in PMID 15547903. To be noted: cited from earlier work.
The test system of data set [6] is murine leukemia L1210 cell line. The arrangement: method as in doi:10.1016/0040-4039(90)87015-R. The conditions noted are these: cited from earlier work.
Setting [7] is: PC-3, PC3 cells, 72 h incubation, Alamar blue, mean of two independent experiments in triplicate.
Setting [8] is: NFF cells, 72 h incubation, Alamar blue, mean of two independent experiments in triplicate.

As a reminder, the IC50 is the concentration needed to halve the response being measured. As a reminder, the inhibition is the relative decrease from the control value, in per cent.

Structures are written as SMILES. Where two headings read alike, the source gives them in different places.

Regarding `C/C(=C\[C@H](C(C)C)N(C)C(=O)[C@@H](NC(=O)[C@H]1CCCCN1C(C)C)C(C)(C)C)C(=O)O` [Compound E7974], the “in vivo antitumor efficacy” value in data set [1] is “strong in vivo antitumor efficacy”.

Take `CN[C@H](C(=O)N[C@H](C(=O)N(C)[C@H](/C=C(\C)C(=O)O)C(C)C)C(C)(C)C)C(C)(C)c1ccccc1` [HTI-286]: the common toxicities observed entry in the data set on advanced solid tumors is “neutropaenia, nausea, alopecia, and pain”. Moreover, the objective responses result with advanced solid tumors (phase II trial halted) is on record as “no objective responses”.

As for `CNC(C(=O)NC(C(=O)N(C)C(C=C(C)C(=O)O)C(C)C)C(C)(C)C)C(C)(C)c1cn(C(O)C(=O)NC(C(=O)N(C)C(C=C(C)C(=O)O)C(C)C)C(C)(C)C)c2ccccc12` (stereo not shown) [Compound 4, hemiasterlin D], the IC50 in data set [2] (PC-3, 72 h) is 2.2 nM; in data set [3] (NFF, 72 h) it was 8.16 nM.

For the molecule `COc1cccc2c1C(=O)c1c(O)c3c(c(O)c1C2=O)C[C@@](O)(C(=O)CO)C[C@@H]3O[C@H]1C[C@H](N)[C@H](O)[C@H](C)O1` [Doxorubicin, doxorubicin, reference compound], the IC50 in data set [2] (setting [7]) worked out at 359 nM; in data set [3] (setting [8]) it was 530 nM.

In the case of `CC(=CC(C(C)C)N(C)C(=O)C(NC(=O)C1[N+](C)=Cc2[nH]c3ccccc3c2C1(C)C)C(C)(C)C)C(=O)O` (stereo not shown) [Compound 3, milnamide G], the IC50 in data set [2] (PC-3, 72 h) is 2870 nM. The inhibition at 10 µM in data set [3] (NFF, read-out: % Inhibition NFF) is 39%.

In the case of `C/C(=C\[C@H](C(C)C)N(C)C(=O)[C@@H](NC(=O)[C@H]1N(C)Cc2c(c3ccccc3n2C)C1(C)C)C(C)(C)C)C(=O)O` [Compound 5, milnamide A], the IC50 came to 11 nM in data set [2] (PC-3, 72 h) and 70.6 nM in data set [3] (NFF, 72 h). Also, the “fold more potent than milnamide C (6)” value in data set [2] (PC3 cells, comparator 6) is 3 fold. In addition, in data set [2] (PC3 cells, comparator 7), the “fold more potent than milnamide C (7)” value was determined as 35 fold. Further, the “milnamide D (7) or G (3) formed by auto-oxidation (LC/MS)” value in data set [4] was 5%–10%. Also, the “auto-oxidation while standing in chloroform” value in data set [5] was “auto-oxidized slowly to milamide D (7)”.

With `C/C1=C\[C@@H](C)C[C@@H](C)OC(=O)[C@@H](C)NC(=O)[C@H](Cc2ccc(O)c(I)c2)N(C)C(=O)CNC(=O)[C@H](C)C1` [Compound 10, geodiamolide D], the IC50 in data set [2] (PC-3, 72 h) was 33.1 nM; in data set [3] (NFF, 72 h) it was 99.1 nM; in data set [6], 62.2 nM. Besides, the “fold more potent than geodiamolide E (11)” value in data set [2] (PC3 cells, comparator 11) was found to be 4 fold. The “fold more active than geodiamolide F (12)” value in data set [2] (PC3 cells, comparator 12) was 5 fold.

On to `CC(=CC(C(C)C)N(C)C(=O)C(NC(=O)C1N(C)C(=O)c2[nH]c3ccccc3c2C1(C)C)C(C)(C)C)C(=O)O` (stereo not shown) [Compound 2, milnamide F], for which the IC50 in data set [2] (PC-3, 72 h) is 2180 nM; in data set [3] (NFF, 72 h), 5650 nM.

`C/C1=C\[C@@H](C)C[C@@H](C)OC(=O)[C@@H](C)NC(=O)[C@H](Cc2ccc(O)c(Br)c2)N(C)C(=O)CNC(=O)[C@H](C)C1` [Compound 11, geodiamolide E]: the IC50 in data set [2] (PC-3, 72 h) is 118 nM; in data set [3] (NFF, 72 h), 425 nM; in data set [6] it was 24.2 nM.

As for `C/C(=C\[C@H](C(C)C)N(C)C(=O)[C@@H](NC(=O)[C@H]1[N+](C)=Cc2c(c3ccccc3n2C)C1(C)C)C(C)(C)C)C(=O)O` [Compound 7, milnamide D], the concentration for half-maximal inhibition (IC50) in data set [2] (PC-3, 72 h) was 381 nM; in data set [3] (NFF, 72 h), 1190 nM.

Regarding `CC(=O)O[C@H]1C(=O)[C@@]2(C)[C@H]([C@H](OC(=O)c3ccccc3)[C@]3(O)C[C@H](OC(=O)[C@H](O)[C@@H](NC(=O)c4ccccc4)c4ccccc4)C(C)=C1C3(C)C)[C@]1(OC(C)=O)CO[C@@H]1C[C@@H]2O` [Taxol, Paclitaxel, reference compound], the IC50 in data set [2] (setting [7]) was determined as 2.26 nM; in data set [3] (setting [8]), 3.94 nM.

Take `CC(=CC(C(C)C)N(C)C(=O)C(NC(=O)C1N(C)Cc2[nH]c3ccccc3c2C1(C)C)C(C)(C)C)C(=O)O` (stereo not shown) [Compound 1, milnamide E]: the IC50 was 34.2 nM in data set [2] (PC-3, 72 h) and 123 nM in data set [3] (NFF, 72 h). The “milnamide D (7) or G (3) formed by auto-oxidation (LC/MS)” value in data set [4] is recorded as 5%–10%.

With `C/C(=C\[C@H](C(C)C)N(C)C(=O)[C@@H](NC(=O)[C@H]1N(C)C(=O)c2c(c3ccccc3n2C)C1(C)C)C(C)(C)C)C(=O)O` [Compound 6, milnamide C], the IC50 in data set [2] (PC-3, 72 h) stood at 31.7 nM; in data set [3] (NFF, 72 h), 188 nM.

For the molecule `CN[C@H](C(=O)N[C@H](C(=O)N(C)[C@H](/C=C(\C)C(=O)O)C(C)C)C(C)(C)C)C(C)(C)c1cn(C)c2ccccc12` [Compound 8, hemiasterlin], the IC50 in data set [2] (PC-3, 72 h) worked out at 0.0484 nM; in data set [3] (NFF, 72 h) it was 0.404 nM. Further, in data set [2] (comparator 9), the “fold more cytotoxic than hemiasterlin A (9)” value is listed as “six-fold”.

As to `C/C1=C\[C@@H](C)C[C@@H](C)OC(=O)[C@@H](C)NC(=O)[C@H](Cc2ccc(O)c(Cl)c2)N(C)C(=O)CNC(=O)[C@H](C)C1` [Compound 12, geodiamolide F], the IC50 is 155 nM in data set [2] (PC-3, 72 h); 708 nM in data set [3] (NFF, 72 h); 11.2 nM in data set [6].
